According to article PMC11091976, “Shorter Peptide Nucleic Acid Probes Improve Affibody-Mediated Peptide Nucleic Acid-Based Pretargeting” (ACS Pharmacology & Translational Science, 2024):
Marks after values point to notes of the source that are not given here.

What was measured:
[1] = cited from earlier work
Experimental: Table 4 ^177Lu-Labeling of PNA-Based Probes and In Vitro Stability | column: stability in PBS, 37 °C, 1 h; stability (×500 EDTA), 37 °C, 1 h

[2] = system: HER2 xenograft mouse model; settings: in vivo; cited from earlier work
Experimental: In our recent study,[29] we introduced a second-generation of pretargeting probes featuring a common 15-mer affibody-PNA conjugate, ZHER2:343-HP15, and three complementary secondary probes of varying lengths: a 9-mer (HP16), a 12-mer (HP17), and a 15-mer (HP18). […] At 4 h postinjection, there were no significant differences in the tumor-to-kidney ratios among the three different pretargeting groups.

HP15 = experiment: UV melting of PNA:PNA duplex with primary probe HP15; format: physicochemical; settings: UV 260 nm, 20-95 °C at 1 °C/min, 5 μM each probe, 10 mM phosphate buffer, 10 mM KCl, pH 7.4
Experimental: (§1) The melting temperatures of secondary probes after duplex formation with primary probes were also measured by monitoring the absorbance at 260 nm as a function of temperature (see Figure S23). All probe pairs had melting temperatures well above 37 °C (body temperature) and ranged from 51 °C for the HP6:HP19 pair with 6 complementary bases to 82 °C for the previously studied HP15:HP18 pair with 15 complementary bases (see Figure 3B and Table 2). […] This secondary structure is typically adopted by antiparallel and L-amino acid-modified PNA–PNA duplexes at neutral pH.[49]
(§2) Figure S23: Normalized temperature melting profiles from 20–95°C for different primary and secondary probe pairs. UV melting curves at 260 nm. (A) HP15 (15-mer) toward secondary 15-, 12- and 9-mers. (B) HP12 (12-mer) toward secondary 12-, 9-, 8-, 7- and 6-mers. (C) HP9 (9-mer) toward secondary 9-, 8-, 7- and 6-mers. (D) HP6 (6-mer) toward secondary 6-mer.
(§3) Concentrations of duplexes in A–D are 5 μM in 10 mM […] with 10 mM KCl at pH 7.4.
(§4) (also on this page, place not known: Fraction melted Fraction meltedFraction melted Fraction melted) […]
(§5) Supplementary Material and methods […]
(§6) Biophysical characterization of PNA:PNA duplexes using CD Spectroscopy and […]
Circular dichroism (CD) and UV melts of PNA:PNA duplexes were measured on a CD spectrometer (Applied Photophysics, Leatherhead, UK) with Peltier temperature control and an external temperature probe. […]
(§7) from 20°C to 95°C with a 1°C/min temperature gradient. Simultaneously, the UV absorbance at 260 nm was recorded as a function of temperature. Fraction melted data was calculated […]
(§8) Fraction melted = 1 ― UVds― UVss , where UVss and UVds are the UV absorbances at 95°C and 20°C, respectively. The melting temperature (Tm) was determined as the maximum of the first derivative of the melting curve and was computed using the Global 3 analysis software (Applied Photophysics, […]
CD spectra in the range of 200–300 nm were recorded for all hybridized PNA:PNA pairs at 20°C before and after the UV melting experiments. […]

Z-HP9 = experiment: Multicycle kinetic SPR, immobilized Z-HP9; format: binding; settings: MCK SPR
Experimental: We utilized SPR on a Biacore T200 instrument (Cytiva) to examine how secondary PNA probes (6-mer HP19, 7-mer HP21, 8-mer HP20, and 9-mer HP16) bind to primary agents. These experiments were conducted using dextran-coated CM5 sensor chips and PBS-T buffer at pH 7.4. The ligands were immobilized through a standard EDC/NHS coupling method, and the chip surface was sealed with ethanolamine. A reference surface with no primary agent was also included.
Association and dissociation times were set at 700 and 1800 s, respectively, with regeneration accomplished through a 30 s injection of 10 mM glycine-HCl, pH 1.5.
All SPR experiments were performed in duplicate, and data analysis was conducted using the Biacore T200 Evaluation software version 2.0 with a 1:1 binding model.

[3] = Solubility of secondary probes in labeling buffer; format: physicochemical; settings: 0.2 M NH4Ac, pH 5.5, 25 °C
Experimental: However, as we moved to shorter PNA oligomers, solubility saw a substantial, nonlinear increase. […] For example, at 25 °C, the maximum soluble concentration of HP17 (12-mer) was around 6 μM. […]
pH 5.5 at 25°C. Dilution series of HPLC-purified and lyophilized secondary probes (1, 3, 6, 9, 13, 26, 39, 52 and 65 µM) for […]
samples were heated at 95°C for five minutes and concentration of the soluble fraction was determined by UV absorption at 260 nm before (grey bars), and after (black bars) an 18-hour static incubation at 25°C. Duplicates were prepared of all samples and the data is presented as the mean ± SD. The maximum soluble concentration of each probe, indicated in panels A-E as a dotted line, was defined as the highest concentration at which at least 95% is still in the soluble fraction after an 18-hour incubation at 25°C. PNA-aggregates are temperature-labile, as exemplified in panel C for 82 µM HP17.
After an 18-hour incubation 25°C, 6 µM is left in the soluble fraction (left black bar) but heating the sample at 95 °C for five minutes completely redissolved HP17 aggregates into solution (right black bar).
(1 picture or pasted object on this page, not shown here)
Supplementary Material and methods
Solubility of secondary probes
HPLC-purified and freeze-dried secondary probes were resuspended in 10 mM NaAc, pH 3.5-3.6 and freeze-dried in smaller aliquots. The secondary probes were re-dissolved in 0.2 M NH4Ac, pH 5.5, and the samples were heated at 95 °C for five minutes to ensure complete dissolvement. Dilution series of secondary probes (1, 3, 6, 9, 13, 26, 39, 52 and 65 μM) for […]
NH4Ac, pH 5.5. The samples were then left for an 18-hour static incubation at 25 C, before being centrifugated at 21,100 x g for 5 minutes on a standard benchtop centrifuge (Eppendorf). The supernatants were transferred to fresh 1.5 mL Eppendorf-tubes, and the […]

HP12 = experiment: UV melting of PNA:PNA duplex with primary probe HP12; format: physicochemical; settings: UV 260 nm, 20-95 °C at 1 °C/min, 5 μM each probe, 10 mM phosphate buffer, 10 mM KCl, pH 7.4
Experimental: as §1, §2, §3, §4, §5, §6
Circular dichroism (CD) and UV melts of PNA:PNA duplexes were measured on a CD spectrometer (Applied Photophysics, Leatherhead, UK) with Peltier temperature control and an external temperature probe. RP-HPLC purified and lyophilized PNA probes were dissolved in 10 mM phosphate buffer with 10 mM KCl at pH 7.4. Samples contained both primary and complementary secondary PNA probes at a final concentration of 5 µM for each probe. These samples were initially heated to 95°C for five minutes, allowed to cool to room temperature, and then transferred to a quartz cuvette with a 1.0 cm path length. A temperature probe was inserted into the solution through the cuvette's rubber cap. […]
as §7, §8
CD spectra in the range of 200–300 nm were recorded for all hybridized PNA:PNA pairs at 20°C before and after the UV melting experiments. All CD spectra were baseline subtracted and presented as an average of five scans.

Row | Molecule | stability (×500 EDTA), 37 °C, 1 h [1] | stability in PBS, 37 °C, 1 h [1] | kidney uptake [2] | Tm (HP15) | ka (Z-HP9; primary probe HP9 (Z-HP9 immobilized), 25 °C, 1.4-70 nM, 1:1 model, duplicates) | Kd (Z-HP9; primary probe HP9, 25 °C) | kd (Z-HP9; primary probe HP9, 25 °C) | Kd (Z-HP9; primary probe HP9, 37 °C) | ka (Z-HP9; primary probe HP9, 37 °C) | kd (Z-HP9; primary probe HP9, 37 °C) | increase in solubility compared to the 15-mer HP18 [3] | maximum soluble concentration ([3]; heated 95 °C 5 min, 18-h static incubation, centrifugation, UV 260 nm of supernatant, highest concentration with at least 95% still soluble, duplicates) | Tm (HP12)
1 | NC(=O)[C@H](Cc1ccc(O)cc1)NC(=O)[C@H](CCC(=O)O)NC(=O)[C@H](CCC(=O)O)NC(=O)CN(CCNC(=O)CN(CCNC(=O)CN(CCNC(=O)CN(CCNC(=O)CN(CCNC(=O)CN(CCNC(=O)CN(CCNC(=O)CN(CCNC(=O)CN(CCNC(=O)[C@H](CO)NC(=O)[C@H](CO)NC(=O)COCCOCCNC(=O)CN1CCN(CC(=O)O)CCN(CC(=O)O)CCN(CC(=O)O)CC1)C(=O)Cn1cnc2c(N)ncnc21)C(=O)Cn1cnc2c(N)ncnc21)C(=O)Cn1ccc(N)nc1=O)C(=O)Cn1cnc2c(N)ncnc21)C(=O)Cn1ccc(N)nc1=O)C(=O)Cn1ccc(N)nc1=O)C(=O)Cn1cnc2c(N)ncnc21)C(=O)Cn1cnc2c(=O)[nH]c(N)nc21)C(=O)Cn1cnc2c(=O)[nH]c(N)nc21 [[^177Lu]Lu-HP16, metal not drawn] | 100 ± 0 ^a | 100 ± 0 ^a | 6 ± 1 % ID/g |  |  |  |  |  |  |  |  |  | 
2 | DOTA-AEEA-SS-aacaccagg-EEY-NH2 [HP16, 9-mer secondary PNA probe with DOTA] |  |  |  | 73 °C | 1.8 × 10^5 M^–1 s^–1 | 0.27 nM | 4.8 × 10^–5 s^–1 | 0.39 nM | 2.9 × 10^5 M^–1 s^–1 | 1.1 × 10^–4 s^–1 | ~10 fold | 26 µM | 68 °C
